Results: patent US20070161665A1, “Cancer treatment method” (priority 2003, published 2007)

Experiments:
[1] = test system: HN5 cells; test: Roche Cell Death ELISAPlus apoptosis assay in HN5 cells (median effect and sensitization ratio analysis); assay type: cell-based; conditions: HN5, 5 μM GW589522A 24 h
Description: HN5 cells are LICR-LON-HN5 head and neck carcinoma cells, which were a gift from the Institute of Cancer Research, Surrey, U.K.
(§1) Cell lines were grown in RPMI-1640 supplemented with 25 mM HEPES, 10 mM glutamine and 10% fetal bovine serum and maintained at 37° C. and 5% CO2 in a humid incubator. Assays were performed in 96 well microtiter plates with optimum seeding densities for each cell line.
(§2) Apoptosis was measured using the Roche Cell Death ELISA^Plus kit (catalog 1 774 425) which detects fragmented nucleosomal DNA that is generated during apoptosis.
Synergistic interaction between compounds was analyzed by the median effect method described by Chou and Talalay (Adv. Enzyme Regul. 22: 27-55, 1984). Briefly, if the two compounds fit the mutually exclusive model of Chou, one calculates the combination index (CI) using the formula CI=((D)1/(Dx)1)+((D)2/(Dx)2) (1) where (D)1 is the concentration of drug 1 in the combination that gives “x” percent apoptosis, (D)2 is the same for drug 2, and (Dx)1 and (Dx)2 are the concentrations of drug 1 or 2 that give “x” percent apoptosis when used alone. (D)1 and (D)2 are known from the composition of the combination and (Dx)1 and (Dx)2 can be calculated from the equation Dx=Dm*[fa/(1−fa)]^1/m (2) where Dm is the concentration of drug giving 50% effect, fa is the fraction affected, and m is the slope from the median effect plot of log (fa/fu) where fu is the fraction unaffected versus log (D). A CI less than 1 indicates synergy, equal to 1 indicates additivity and greater than 1 antagonism.
Sensitization is measured as the ratio between observed and expected apoptosis or caspase activation from a combination of AKT kinase inhibitor and EGFR/erb inhibitor. The expected level of activity (Ae) is calculated by Ae=1−((1−A1)*(1−A2)) (3) where A1 and A2 are the activities of drugs 1 and 2 alone at the concentration used in the combination (Harvey, R. J., J. Theor. Biol. 74: 411-437, 1978).

[2] = test system: T47D cells; test: Roche Cell Death ELISAPlus apoptosis assay in T47D cells (sensitization ratio); assay type: cell-based, human; conditions: compound at 25 μM, combined with GW589522
Description: T47D cells are human breast ductal carcinoma cells originally obtained from the American Type Culture Collection.
as §1, §2
The expected level of activity (Ae) is calculated by Ae=1−((1−A1)*(1−A2)) (3) where A1 and A2 are the activities of drugs 1 and 2 alone at the concentration used in the combination (Harvey, R. J., J. Theor. Biol. 74: 411-437, 1978).
Apoptosis was measured using the Roche Cell Death ELISA^Plus kit, and the relative percentage of apoptosis was determined for each combination.

[3] = target: AKT1 (Homo sapiens, UniProt P31749); test: Inhibition of AKT isoforms, enzyme IC50; assay type: biochemical
Sequence of AKT1 (P31749 whole entry, species assumed, canonical isoform): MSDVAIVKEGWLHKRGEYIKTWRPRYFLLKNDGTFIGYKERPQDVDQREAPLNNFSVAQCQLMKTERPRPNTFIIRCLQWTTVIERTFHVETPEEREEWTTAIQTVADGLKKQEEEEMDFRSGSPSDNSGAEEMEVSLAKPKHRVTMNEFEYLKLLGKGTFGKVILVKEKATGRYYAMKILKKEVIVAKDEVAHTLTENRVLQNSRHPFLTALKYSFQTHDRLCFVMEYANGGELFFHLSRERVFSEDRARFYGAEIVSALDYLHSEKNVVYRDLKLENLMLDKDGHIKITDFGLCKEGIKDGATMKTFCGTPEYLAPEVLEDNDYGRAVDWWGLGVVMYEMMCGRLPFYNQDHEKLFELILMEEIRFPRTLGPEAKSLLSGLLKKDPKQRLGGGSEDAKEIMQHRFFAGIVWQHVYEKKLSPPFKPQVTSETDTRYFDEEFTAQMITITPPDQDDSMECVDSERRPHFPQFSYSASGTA

[4] = target: AKT2 (Homo sapiens, UniProt P31751); test: Inhibition of AKT isoforms, enzyme IC50; assay type: biochemical
Sequence of AKT2 (P31751 whole entry, species assumed, canonical isoform): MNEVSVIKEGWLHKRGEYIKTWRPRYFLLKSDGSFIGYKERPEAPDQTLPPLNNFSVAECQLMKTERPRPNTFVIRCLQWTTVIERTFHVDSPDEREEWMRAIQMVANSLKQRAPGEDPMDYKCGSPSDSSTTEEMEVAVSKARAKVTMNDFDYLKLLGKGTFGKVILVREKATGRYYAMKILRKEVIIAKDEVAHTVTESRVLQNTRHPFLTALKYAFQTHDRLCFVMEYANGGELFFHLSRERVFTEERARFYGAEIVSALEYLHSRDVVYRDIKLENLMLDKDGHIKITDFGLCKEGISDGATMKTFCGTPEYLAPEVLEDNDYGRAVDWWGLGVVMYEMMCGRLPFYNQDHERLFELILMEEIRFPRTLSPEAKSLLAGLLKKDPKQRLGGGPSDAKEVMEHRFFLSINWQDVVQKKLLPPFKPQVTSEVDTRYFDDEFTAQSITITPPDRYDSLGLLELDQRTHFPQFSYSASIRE

[5] = target: AKT3 (Homo sapiens, UniProt Q9Y243); test: Inhibition of AKT isoforms, enzyme IC50; assay type: biochemical
Sequence of AKT3 (Q9Y243 whole entry, species assumed, canonical isoform): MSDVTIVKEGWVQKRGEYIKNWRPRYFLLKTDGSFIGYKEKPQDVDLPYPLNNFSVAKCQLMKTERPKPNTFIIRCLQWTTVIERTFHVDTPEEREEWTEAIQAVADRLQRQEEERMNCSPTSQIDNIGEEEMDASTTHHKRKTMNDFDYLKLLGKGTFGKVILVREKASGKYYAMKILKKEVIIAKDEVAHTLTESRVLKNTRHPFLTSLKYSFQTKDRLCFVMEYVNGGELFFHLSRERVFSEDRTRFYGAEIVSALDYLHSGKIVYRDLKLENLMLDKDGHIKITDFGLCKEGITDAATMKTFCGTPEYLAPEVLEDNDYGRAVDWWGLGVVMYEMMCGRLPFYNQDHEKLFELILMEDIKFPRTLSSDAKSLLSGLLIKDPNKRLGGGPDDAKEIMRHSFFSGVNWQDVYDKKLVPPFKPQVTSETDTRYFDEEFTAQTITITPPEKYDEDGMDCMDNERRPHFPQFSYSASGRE

Row | IC50 [3] | IC50 [4] | IC50 [5] | Structure (SMILES) | Sensitization Ratio in HN5 with 5 μM GW589522A ([1]; then compound 25 μM 4 h) | SR (sensitization ratio) [2] | Sensitization Ratio in HN5 with 5 μM GW589522A ([1]; then compound 5 μM 4 h) | Sensitization Ratio in HN5 with 5 μM GW589522A ([1]; then compound 4 h, concentration not given)
1 | 8320 nM | 7940 nM | 450 nM | Nc1nonc1-c1nc2c(-c3cccc(Cl)c3)ncc(C(=O)NCCNCc3ccccc3)c2n1CC1CC1.O=C(O)C(F)(F)F [Ex 8, 2-(4-amino-1,2,5-oxadiazol-3-yl)-4-(3-chlorophenyl)-1-(cyclopropylmethyl)-N-{2-[(phenylmethyl)amino]ethyl}-1H-imidazo[4,5-c]pyridine-7-carboxamide, trifluoroacetate salt] | 27 @ 25 | 7.1 | – | –
2 | 40 nM | 20 nM | 10 nM | CCn1c(-c2nonc2N)nc2c(-c3ccccc3)ncc(OCCCN)c21.O=C(O)C(F)(F)F [Ex 13, 4-{7-[(3-aminopropyl)oxy]-1-ethyl-4-phenyl-1H-imidazo[4,5-c]pyridin-2-yl}-1,2,5-oxadiazol-3-amine trifluoroacetate] | – | – | 12 @ 5 | –
3 | 70 nM | 270 nM | 510 nM | CCn1c(-c2nonc2N)nc2cncc(OCC3CCNCC3)c21 [Ex 14, 4-[1-Ethyl-7-(piperidin-4-ylmethoxy)-1H-imidazo[4,5-c]pyridin-2-yl]-furazan-3-ylamine] | – | – | – | 4.5 @
